Read-outs that look alike come from different tables or passages of the source.
Assays:
[1] = molecular target: T1, HDAC6-UBD (HDAC6 1109-1215) (Homo sapiens, UniProt Q9UBN7); test: SPR, steady state; format: binding
T1 sequence (Q9UBN7 1109-1215): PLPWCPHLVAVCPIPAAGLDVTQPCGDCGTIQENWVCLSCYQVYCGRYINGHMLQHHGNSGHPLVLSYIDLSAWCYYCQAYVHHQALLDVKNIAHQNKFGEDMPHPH

[2] = molecular target: T2, USP13 (Homo sapiens, UniProt Q92995); test: biochemical; design: SPR, steady-state binding to immobilised biotinylated UBD proteins
T2 construct: UBD, residues 183-307
T2 sequence (Q92995 1-863): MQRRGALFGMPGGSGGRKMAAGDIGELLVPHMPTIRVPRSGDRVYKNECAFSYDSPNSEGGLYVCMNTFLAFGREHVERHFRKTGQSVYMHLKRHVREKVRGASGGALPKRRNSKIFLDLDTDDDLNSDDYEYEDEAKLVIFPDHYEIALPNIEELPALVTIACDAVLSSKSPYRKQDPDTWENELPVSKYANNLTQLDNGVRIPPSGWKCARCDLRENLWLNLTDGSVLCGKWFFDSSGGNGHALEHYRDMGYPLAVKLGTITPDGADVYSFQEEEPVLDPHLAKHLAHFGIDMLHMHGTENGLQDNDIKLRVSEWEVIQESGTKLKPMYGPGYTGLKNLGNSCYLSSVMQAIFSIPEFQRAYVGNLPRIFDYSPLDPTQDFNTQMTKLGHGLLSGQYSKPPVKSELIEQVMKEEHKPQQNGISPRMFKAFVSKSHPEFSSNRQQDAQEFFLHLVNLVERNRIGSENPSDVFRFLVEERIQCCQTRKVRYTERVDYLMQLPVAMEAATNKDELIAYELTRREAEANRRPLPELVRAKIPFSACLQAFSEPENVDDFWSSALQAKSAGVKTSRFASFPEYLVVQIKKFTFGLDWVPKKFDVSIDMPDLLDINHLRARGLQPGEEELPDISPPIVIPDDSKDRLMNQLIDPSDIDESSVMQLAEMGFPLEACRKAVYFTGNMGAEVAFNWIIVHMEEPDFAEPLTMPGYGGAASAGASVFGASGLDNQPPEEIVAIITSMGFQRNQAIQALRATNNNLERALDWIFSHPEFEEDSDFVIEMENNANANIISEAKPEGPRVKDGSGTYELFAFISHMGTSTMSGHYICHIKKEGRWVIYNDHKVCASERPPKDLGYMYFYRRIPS

[3] = molecular target: T3, USP33 (Homo sapiens, UniProt Q8TEY7); test: biochemical; design: SPR, steady-state binding to immobilised biotinylated UBD proteins
T3 construct: UBD, residues 29-134
T3 sequence (Q8TEY7 1-942): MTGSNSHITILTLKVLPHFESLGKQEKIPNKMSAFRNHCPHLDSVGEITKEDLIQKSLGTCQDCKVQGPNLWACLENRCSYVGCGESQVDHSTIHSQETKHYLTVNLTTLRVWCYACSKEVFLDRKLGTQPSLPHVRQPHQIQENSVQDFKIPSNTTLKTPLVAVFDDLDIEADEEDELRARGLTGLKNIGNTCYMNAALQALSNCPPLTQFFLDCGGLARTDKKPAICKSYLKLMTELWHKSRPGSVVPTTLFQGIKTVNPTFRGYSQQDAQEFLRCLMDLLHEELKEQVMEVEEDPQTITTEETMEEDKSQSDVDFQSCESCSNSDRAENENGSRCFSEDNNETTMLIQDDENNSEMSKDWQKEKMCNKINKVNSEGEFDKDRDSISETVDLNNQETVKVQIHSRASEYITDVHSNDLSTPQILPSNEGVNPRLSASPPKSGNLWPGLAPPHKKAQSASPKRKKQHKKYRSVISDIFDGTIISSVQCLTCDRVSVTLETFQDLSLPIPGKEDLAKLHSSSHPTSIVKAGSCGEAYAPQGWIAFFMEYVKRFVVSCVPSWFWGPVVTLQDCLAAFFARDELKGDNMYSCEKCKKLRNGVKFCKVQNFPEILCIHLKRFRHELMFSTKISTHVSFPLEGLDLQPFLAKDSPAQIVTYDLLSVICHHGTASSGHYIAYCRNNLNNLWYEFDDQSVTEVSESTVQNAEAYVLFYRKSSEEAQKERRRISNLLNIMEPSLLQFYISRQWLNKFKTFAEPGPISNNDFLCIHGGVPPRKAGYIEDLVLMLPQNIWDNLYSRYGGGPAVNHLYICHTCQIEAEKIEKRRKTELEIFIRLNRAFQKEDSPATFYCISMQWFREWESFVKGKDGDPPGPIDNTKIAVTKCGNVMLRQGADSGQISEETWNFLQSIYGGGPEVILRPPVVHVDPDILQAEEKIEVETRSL

[4] = molecular target: T4, USP51 (Homo sapiens, UniProt Q70EK9); test: biochemical; design: SPR, steady-state binding to immobilised biotinylated UBD proteins
T4 construct: UBD, residues 176-305
T4 sequence (Q70EK9 1-711): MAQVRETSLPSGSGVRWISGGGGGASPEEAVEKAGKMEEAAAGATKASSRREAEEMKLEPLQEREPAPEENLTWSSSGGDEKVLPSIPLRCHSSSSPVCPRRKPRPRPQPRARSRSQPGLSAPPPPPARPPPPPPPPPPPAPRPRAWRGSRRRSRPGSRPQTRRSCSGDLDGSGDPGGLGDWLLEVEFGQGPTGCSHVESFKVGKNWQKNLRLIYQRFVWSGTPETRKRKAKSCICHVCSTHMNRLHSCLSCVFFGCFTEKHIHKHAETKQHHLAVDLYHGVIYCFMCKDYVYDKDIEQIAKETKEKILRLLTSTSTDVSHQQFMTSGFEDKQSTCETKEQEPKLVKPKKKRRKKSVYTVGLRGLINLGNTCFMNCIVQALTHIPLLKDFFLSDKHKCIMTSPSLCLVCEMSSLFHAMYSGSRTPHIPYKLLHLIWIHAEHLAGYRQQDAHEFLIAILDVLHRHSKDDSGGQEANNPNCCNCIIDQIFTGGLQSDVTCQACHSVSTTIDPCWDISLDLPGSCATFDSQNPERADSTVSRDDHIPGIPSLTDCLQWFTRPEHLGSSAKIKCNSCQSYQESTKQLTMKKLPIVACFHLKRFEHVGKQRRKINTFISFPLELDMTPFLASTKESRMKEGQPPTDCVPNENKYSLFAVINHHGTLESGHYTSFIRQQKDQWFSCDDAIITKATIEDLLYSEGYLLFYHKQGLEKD

[5] = molecular target: USP16-UBD (USP16 25-185) (Homo sapiens, UniProt Q9Y5T5); test: biochemical; design: SPR, steady-state binding to immobilised biotinylated UBD proteins; conditions: read-out: Negative Control KD (nM) SGC-UBD1031N
Sequence of USP16-UBD (USP16 25-185) (Q9Y5T5 25-185): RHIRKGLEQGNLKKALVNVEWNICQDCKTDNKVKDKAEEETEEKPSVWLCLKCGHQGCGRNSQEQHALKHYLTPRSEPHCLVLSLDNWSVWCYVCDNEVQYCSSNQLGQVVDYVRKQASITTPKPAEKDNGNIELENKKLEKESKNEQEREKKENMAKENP

[6] = read-out: Probe KD (nM) SGC-UBD1031
[7] = read-out: Negative Control KD (nM) SGC-UBD1031N

| SMILES | Kd [1] [nM] | Kd [2, 6] [nM] | Kd [3, 6] [nM] | Kd [4, 6] [nM] | Kd [2, 7] [nM] | Kd [5] [nM] | Kd [3, 7] [nM] | Kd [4, 7] [nM] |
| --- | --- | --- | --- | --- | --- | --- | --- | --- |
| C[C@H](NC(=O)Cn1c(CCC(=O)O)nc2c(Cl)cccc2c1=O)c1c(F)cccc1F [compound 15, (S)-3-(8-chloro-3-(2-((1-(2,6-difluorophenyl)ethyl)amino)-2-oxoethyl)-4-oxo-3,4-dihydroquinazolin-2-yl)propanoic acid] | 16 | > 10000 | > 10000 | > 10000 |  |  |  |  |
| C[C@@H](NC(=O)Cn1c(CCC(=O)O)nc2c(Cl)cccc2c1=O)c1c(F)cccc1F [compound 16, (R)-3-(8-chloro-3-(2-((1-(2,6-difluorophenyl)ethyl)amino)-2-oxoethyl)-4-oxo-3,4-dihydroquinazolin-2-yl)propanoic acid] | > 5000 |  |  |  | > 10000 | 1770 ± 300 | > 10000 | > 10000 |
